Laboratory results from US11191820B2, “Method for inducing early T memory response with short peptides anti-tumor vaccine” (OSE IMMUNOTHERAPEUTICS, priority 2015, dated 2021).

Experiments:
Format in all cases: in vivo, human
[1] = system: central memory T cells; test: Cultured IFN-γ ELISPOT after 10-day in vitro stimulation of PBMC, phase 1/2 colon cancer trial of OSE-2101; parameters: key to net SFC of vaccine positive CTL responses: —, indicates SFC response did not meet criteria and vaccine response was negative; conditions: for Mean SFC: 10 colon patients
Protocol: (§1) Clinical study design. Both trials were designed as phase 1/2, open label, multi-center, single dose, multiple administration studies to evaluate the safety and immunogenicity of the OSE-2101 immunotherapy. Patients were treated with 1 ml OSE-2101 every 3 weeks for a total of six doses. Each dose was administered subcutaneously in the same vicinity in the deltoid or upper thigh region, or at a contralateral site if local side-effects were observed. The study duration for each completed patient was 18 weeks. Clinical responses or patient survival were not measured in either phase 1/2 studies.
(§2) Clinical sample processing. Blood or leukapheresis product was obtained from patients at the pre-treatment, the Week 9 and Week 18 time points, 3 weeks after the third and sixth dose of OSE-2101 respectively. Peripheral blood mononuclear cells (PBMC) were isolated from samples within 24 hours of collection using a FICOLL-PAQUE density gradient and cryopreserved in containers designed to ensure optimal freezing (Mr. Frosty, Nalgene). For use, cells were rapidly thawed at 37° C. then transferred to human AB serum-containing medium for work-up.
(§3) Measurement of central T memory cells responses and T effector memory cells. The CTL responses in 16 total patients (10 colon and six NSCLC) were monitored for CTL responses against each epitope and against the wild-type epitope of epitopes analogs. For each patient, the pre-treatment, Week 9 and Week 18 time points were batch-tested in the same experiment to allow pre- versus post-treatment response comparison in the same experiment. Central T memory cells responses were measured using an IFN-γ enzyme-linked immunospot (cultured ELISPOT) assay following in vitro stimulation of PBMC for 10 days with each vaccine epitope. Briefly, PBMC from each time point were stimulated on day 0 with 10 μg/ml of each epitope individually in replicate in 48-well culture plates (2×10^6 PBMC/well). All cultures were fed with rIL-2 (Endogen, Woburn, Mass.; 10 U/ml final concentration) on days 1, 4 and 7. Ten days after initiation of culture, cells were harvested and tested for activity against specific vaccine peptides and corresponding wild-type peptides of vaccine analogs in the T memory ELISPOT assay. Cells were tested in Millipore IP 96-well plates pre-coated with mouse anti-human IFN-γ antibody (Mabtech USA, Cincinnati, Ohio). Five×10^4 cells and 1.25×10^4 cells from each culture were plated in triplicate wells together with 10^5 irradiated autologous PBMC and 10 μg/ml peptide. As a control, CTL were also tested against an irrelevant HLA-A2.1-binding HBV peptide. After 20 hours incubation, T memory ELISPOT plates were developed by performing sequential incubations with biotinylated anti-human IFN-γ antibody (Mabtech USA), Avidin-Peroxidase Complex (APC, Vector Laboratories, Burlingame, Calif.), and 3-amino-9-ethyl carbazole (AEC) substrate (Sigma Aldrich, St. Louis, Mo.). Spot-forming cells (SFC) were enumerated using a computer-assisted image analysis system (Zeiss KS ELISPOT Reader, Carl Zeiss MicroImaging, Thornwood, N.J.). Data is reported as the net SFC per 5×10^4 cells after subtracting spots induced with the irrelevant HBV peptide.

[2] = system: central memory T cells; test: Central memory T cell cultured ELISPOT, phase 2 trial in advanced NSCLC
Protocol: CTL Immune responses measured though cultured Elispot. The immunogenicity was measured in Phase 2 clinical trial on cryopreserved PBMC from each test sample were thawed in 5% human culture medium (RPMI-1640 medium with 25 mM HEPES, supplemented with 5% human AB serum, 4 mM L-glutamine, 0.5 mM sodium pyruvate, 0.1 mM MEM non-essential amino acids, 100 μg/ml streptomycin, and 100 U/ml penicillin) containing 30 μg/ml DNAase. After centrifugation for 5 minutes at 1200 rpm, the cell pellets were resuspended in 5% human culture medium and washed 2 times. For the central Memory T cell cultured ELISPOT assay, 2×10^6/ml PBMC were placed in replicate wells in a 48-well plates and stimulated for 10 days with 10 μg/ml of each peptide. As a positive control, PBMC were also stimulated with a pool of recall viral peptides. Human rIL2 (10 U/ml) was added to the peptide-stimulated cultures at day 1, day 4 and day 7. After 10 days the stimulated cells were harvested and plated at a concentration of 5×10^4/well. Assay wells also received irradiated autologous PBMC (1×10^5/well) and 10 μg/ml peptide, either the vaccine peptide, irrelevant peptide or positive control peptides. Cells stimulated in vitro with each analog epitope were also tested against the corresponding wild-type epitope.
Data analysis and acceptance criteria. Mean and standard deviation (SD) of spots in replicate wells were calculated in all assays by transferring raw ELISPOT data from each experiment to an Excel-based computer program. Positive vaccine-induced T-cell responses were determined according to the criteria described below.
Acceptance Criteria for peptide-Induced specific T-cell response through central memory T cells: The positive criteria for CTL responses used in the phase 2 trial was identical to the criteria in the phase 1/2 trials which was established prospectively after analyzing the variability of pre-treatment responses in patients against each vaccine epitope and the irrelevant HBV control epitope. A positive peptide-induced CTL/T memory response to a given epitope met all of the following conditions: 1) was greater than 5 SFC above the irrelevant epitope response, 2) was greater than the mean SFC of the irrelevant epitope response, plus 2 SD, and 3) was two-fold greater than the SFC response in the pre-vaccination sample from the same patient, plus 2 SD. The inclusion of “plus two standard deviations” was used to accommodate the assay variability and served to increase the criteria stringency.

[3] = system: central memory T cells; test: Cultured IFN-γ ELISPOT after 10-day in vitro stimulation of PBMC, phase 1/2 NSCLC trial of OSE-2101; parameters: key to net SFC of vaccine positive CTL responses: —, indicates SFC response did not meet criteria and vaccine response was negative; conditions: for No. Positive Responses: 6 NSCLC patients
Protocol: as §1, §2, §3

KVAEIVHFL [MAGE3.112I5 A]
Mean SFC ([1]; Week 9): 49.2 SFC per 50,000 cells
Mean SFC ([1]; Week 18): 77.8 SFC per 50,000 cells
net SFC of vaccine positive CTL responses ([1]; colon patient 551, Week 9): —
net SFC of vaccine positive CTL responses ([1]; colon patient 551, Week 18): 8.7 SFC per 50,000 cells
net SFC of vaccine positive CTL responses ([1]; colon patient 601, Week 9): 27.0 SFC per 50,000 cells
net SFC of vaccine positive CTL responses ([1]; colon patient 601, Week 18): —
net SFC of vaccine positive CTL responses ([1]; colon patient 602, Week 9): —
net SFC of vaccine positive CTL responses ([1]; colon patient 602, Week 18): —
net SFC of vaccine positive CTL responses ([1]; colon patient 603, Week 9): —
net SFC of vaccine positive CTL responses ([1]; colon patient 603, Week 18): 16.0 SFC per 50,000 cells
net SFC of vaccine positive CTL responses ([1]; colon patient 604, Week 9): 60.3 SFC per 50,000 cells
net SFC of vaccine positive CTL responses ([1]; colon patient 604, Week 18): 268.0 SFC per 50,000 cells
net SFC of vaccine positive CTL responses ([1]; colon patient 605, Week 9): —
net SFC of vaccine positive CTL responses ([1]; colon patient 605, Week 18): —
net SFC of vaccine positive CTL responses ([1]; colon patient 606, Week 9): —
net SFC of vaccine positive CTL responses ([1]; colon patient 606, Week 18): 18.7 SFC per 50,000 cells
net SFC of vaccine positive CTL responses ([1]; colon patient 607, Week 9): 60.3 SFC per 50,000 cells
net SFC of vaccine positive CTL responses ([1]; colon patient 607, Week 18): —
net SFC of vaccine positive CTL responses ([1]; colon patient 608, Week 9): —
net SFC of vaccine positive CTL responses ([1]; colon patient 608, Week 18): —
net SFC of vaccine positive CTL responses ([1]; colon patient 609, Week 9): —
net SFC of vaccine positive CTL responses ([1]; colon patient 609, Week 18): —
% of patients with positive CTL/central memory T cell response ([2]; phase 2, month 9): 0%
patients with positive CTL/central memory T cell response / patients tested ([2]; phase 2, month 9): 0/7
% of patients with positive CTL/central memory T cell response ([2]; phase 2, month 12): 0%
patients with positive CTL/central memory T cell response / patients tested ([2]; phase 2, month 12): 0/4
% of patients with positive CTL/central memory T cell response ([2]; phase 2, week 9): 30%
patients with positive CTL/central memory T cell response / patients tested ([2]; phase 2, week 9): 10/33
% of patients with positive CTL/central memory T cell response ([2]; phase 2, week 18): 25%
patients with positive CTL/central memory T cell response / patients tested ([2]; phase 2, week 18): 8/32
% of patients with positive CTL/central memory T cell response ([2]; phase 2, week 30): 43%
patients with positive CTL/central memory T cell response / patients tested ([2]; phase 2, week 30): 10/23
No. Positive Responses ([3]; Week 9): 0
No. Positive Responses ([3]; Week 18): 0
net SFC of vaccine positive CTL responses ([3]; NSCLC patient 201, Week 9): —
net SFC of vaccine positive CTL responses ([3]; NSCLC patient 201, Week 18): —
net SFC of vaccine positive CTL responses ([3]; NSCLC patient 502, Week 9): —
net SFC of vaccine positive CTL responses ([3]; NSCLC patient 502, Week 18): —
net SFC of vaccine positive CTL responses ([3]; NSCLC patient 504, Week 9): —
net SFC of vaccine positive CTL responses ([3]; NSCLC patient 504, Week 18): —
net SFC of vaccine positive CTL responses ([3]; NSCLC patient 505, Week 9): —
net SFC of vaccine positive CTL responses ([3]; NSCLC patient 505, Week 18): —
net SFC of vaccine positive CTL responses ([3]; NSCLC patient 532, Week 9): —
net SFC of vaccine positive CTL responses ([3]; NSCLC patient 532, Week 18): —
net SFC of vaccine positive CTL responses ([3]; NSCLC patient 651, Week 9): —
net SFC of vaccine positive CTL responses ([3]; NSCLC patient 651, Week 18): —
